{"source": "patent US20110212960A1", "about": "“NEW COMPOUNDS FOR THE TREATMENT OF CNS DISORDER” (BOEHRINGER INGELHEIM INTERNATIONAL GMBH, priority 2009, published 2011)", "target": "T1, human PDE9A2 (Homo sapiens, UniProt O76083)", "T1 construct": "made in house; host or cells: Sf9 insect cells (infected; crude lysate used as enzyme source)", "T1 sequence (O76083 1-533 isoform O76083-2)": "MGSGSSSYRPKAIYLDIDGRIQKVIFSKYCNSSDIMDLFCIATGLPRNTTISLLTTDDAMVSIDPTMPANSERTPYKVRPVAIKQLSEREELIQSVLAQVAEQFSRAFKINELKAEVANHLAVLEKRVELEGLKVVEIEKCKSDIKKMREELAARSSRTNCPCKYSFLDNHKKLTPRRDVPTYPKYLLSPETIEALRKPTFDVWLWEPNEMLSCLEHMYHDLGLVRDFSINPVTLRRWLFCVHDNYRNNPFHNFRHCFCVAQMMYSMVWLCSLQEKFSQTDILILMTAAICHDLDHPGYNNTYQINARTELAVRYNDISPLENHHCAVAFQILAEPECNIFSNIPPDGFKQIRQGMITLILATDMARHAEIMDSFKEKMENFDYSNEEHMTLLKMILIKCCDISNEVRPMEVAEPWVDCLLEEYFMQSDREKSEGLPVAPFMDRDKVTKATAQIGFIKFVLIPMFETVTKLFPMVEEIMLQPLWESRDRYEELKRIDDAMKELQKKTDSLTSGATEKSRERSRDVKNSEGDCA", "assay": "PDE9A2 enzymatic activity assay (scintillation proximity assay)", "format": "biochemical", "settings": "for inhibition at 10 µM: read-out: % inhibition of PDE9A2", "protocol": "The PDE9A2 enzymatic activity assay was run as scintillation proximity assay (SPA), in general according to the protocol of the manufacturer (Amersham Biosciences, product number: TRKQ 7100).\nAs enzyme source, lysate (PBS with 1% Triton X-100 supplemented with protease inhibitors, cell debris removed by centrifugation at 13.000 rpm for 30 min) of SF 9 cell expressing the human PDE9A2 was used. The total protein amount included in the assay varied upon infection and production efficacy of the SF9 cells and lay in the range of 0.1-100 ng.\nIn general, the assay conditions were as follows: • total assay volume: 40 microliter • protein amount: 0.1-50 ng • substrate concentration (cGMP): 20 nanomolar; ˜1 mCi/l • incubation time: 60 min at room temperature • final DMSO concentration: 0.2-1%\nThe assays were run in 384-well format. The test reagents as well as the enzyme and the substrate were diluted in assay buffer. The assay buffer contained 50 mM Tris, 8.3 mM MgCl2, 1.7 mM EGTA, 0.1% BSA, 0.05% Tween 20; the pH of assay buffer was adjusted to 7.5. The reaction was stopped by applying a PDE9 specific inhibitor (e.g. compounds according to WO04099210 or WO04099211) in excess.\nThe activity of the positive control (minus the negative control=background) is set to 100% and activity in the presence of test compound is expressed relative to these 100%.", "key": {"[1]": {"settings": "specific IC50 value lies within the given range, read-out: IC50 within range [nanomolar (nM)]"}}, "note": "Read-outs that look alike come from different tables or passages of the source.", "data": [{"smiles": "Cc1ccccc1-n1ncc2c(=O)[nH]c(C3CC3C)nc21", "note": "(mixture of isomers) [Example 37]", "values": [{"measurement": "IC50", "setting": "[1]", "value": "1 to 200", "unit": "nM"}]}, {"smiles": "COC(=O)C1CCCC(c2nc3c(cnn3-c3ccccc3C)c(=O)[nH]2)C1", "note": "(mixture of isomers) [Example 38]", "values": [{"measurement": "IC50", "setting": "[1]", "value": "1 to 200", "unit": "nM"}]}, {"smiles": "Cc1ccccc1-n1ncc2c(=O)[nH]c(C3CCCC(O)C3)nc21", "note": "(mixture of isomers) [Example 40]", "values": [{"measurement": "IC50", "setting": "[1]", "value": "201 to 5000", "unit": "nM"}]}, {"smiles": "Cc1ccccc1-n1ncc2c(=O)[nH]c(C3CCC(O)C(O)C3)nc21", "note": "(mixture of isomers) [Example 41]", "values": [{"measurement": "IC50", "setting": "[1]", "value": "201 to 5000", "unit": "nM"}]}, {"smiles": "CCOC(=O)C1CCCC(c2nc3c(cnn3C(CC)CC)c(=O)[nH]2)C1", "note": "(mixture of isomers) [Example 42]", "values": [{"measurement": "IC50", "setting": "[1]", "value": "201 to 5000", "unit": "nM"}]}, {"smiles": "CCC(CC)n1ncc2c(=O)[nH]c(C3CCC(C(=O)Nc4cc(OC)cc(OC)c4)CC3)nc21", "note": "(mixture of isomers) [Example 44]", "values": [{"measurement": "IC50", "setting": "[1]", "value": "201 to 5000", "unit": "nM"}]}, {"smiles": "O=C([C@H]1CC[C@@H]1c1nc2c(cnn2C2CCC(F)(F)CC2)c(=O)[nH]1)N1CCOCC1", "note": "(racemic) [Example 1]", "values": [{"measurement": "inhibition at 10 µM", "setting": "at 10 micromolar concentration", "value": 99, "unit": "%"}, {"measurement": "IC50", "setting": "[1]", "value": "1 to 200", "unit": "nM"}]}, {"smiles": "O=C([C@H]1CC[C@@H]1c1nc2c(cnn2C2CCC(F)(F)CC2)c(=O)[nH]1)N1CC[C@@H](F)C1", "note": "(racemic) [Example 2]", "values": [{"measurement": "inhibition at 10 µM", "setting": "at 10 micromolar concentration", "value": 100, "unit": "%"}, {"measurement": "IC50", "setting": "[1]", "value": "1 to 200", "unit": "nM"}]}, {"smiles": "O=C([C@H]1CC[C@@H]1c1nc2c(cnn2C2CCC(F)(F)CC2)c(=O)[nH]1)N1CCC(F)(F)C1", "note": "(racemic) [Example 3]", "values": [{"measurement": "inhibition at 10 µM", "setting": "at 10 micromolar concentration", "value": 100, "unit": "%"}, {"measurement": "IC50", "setting": "[1]", "value": "1 to 200", "unit": "nM"}]}, {"smiles": "O=C([C@H]1CC[C@@H]1c1nc2c(cnn2C2CCC(F)(F)CC2)c(=O)[nH]1)N1CC(F)(F)C(F)(F)C1", "note": "(racemic) [Example 4]", "values": [{"measurement": "inhibition at 10 µM", "setting": "at 10 micromolar concentration", "value": 97, "unit": "%"}, {"measurement": "IC50", "setting": "[1]", "value": "1 to 200", "unit": "nM"}]}, {"smiles": "O=C([C@H]1CC[C@@H]1c1nc2c(cnn2C2CCC(F)(F)CC2)c(=O)[nH]1)N1CCC2(CC2)C1", "note": "(racemic) [Example 5]", "values": [{"measurement": "inhibition at 10 µM", "setting": "at 10 micromolar concentration", "value": 100, "unit": "%"}, {"measurement": "IC50", "setting": "[1]", "value": "1 to 200", "unit": "nM"}]}, {"smiles": "O=C([C@H]1CC[C@@H]1c1nc2c(cnn2C2CCC(F)(F)CC2)c(=O)[nH]1)N1CCC(C(F)(F)F)CC1", "note": "(racemic) [Example 6]", "values": [{"measurement": "inhibition at 10 µM", "setting": "at 10 micromolar concentration", "value": 101, "unit": "%"}, {"measurement": "IC50", "setting": "[1]", "value": "1 to 200", "unit": "nM"}]}, {"smiles": "CO[C@@H]1CCN(C(=O)[C@H]2CC[C@@H]2c2nc3c(cnn3C3CCC(F)(F)CC3)c(=O)[nH]2)C1", "note": "(racemic) [Example 7]", "values": [{"measurement": "inhibition at 10 µM", "setting": "at 10 micromolar concentration", "value": 102, "unit": "%"}, {"measurement": "IC50", "setting": "[1]", "value": "1 to 200", "unit": "nM"}]}, {"smiles": "O=C([C@H]1CC[C@@H]1c1nc2c(cnn2C2CCC(F)(F)CC2)c(=O)[nH]1)N1C[C@H]2CCC[C@H]2C1", "note": "(racemic) [Example 8]", "values": [{"measurement": "IC50", "value": "1 to 200", "unit": "nM"}, {"measurement": "inhibition at 10 µM", "value": 100, "unit": "%"}]}, {"smiles": "O=C([C@H]1CC[C@@H]1c1nc2c(cnn2C2CCC(F)(F)CC2)c(=O)[nH]1)N1CCC(F)(F)CC1", "note": "(racemic) [Example 9]", "values": [{"measurement": "inhibition at 10 µM", "setting": "at 10 micromolar concentration", "value": 100, "unit": "%"}, {"measurement": "IC50", "setting": "[1]", "value": "1 to 200", "unit": "nM"}]}, {"smiles": "CC1(C)CCN(C(=O)[C@H]2CC[C@@H]2c2nc3c(cnn3C3CCC(F)(F)CC3)c(=O)[nH]2)CC1", "note": "(racemic) [Example 10]", "values": [{"measurement": "inhibition at 10 µM", "setting": "at 10 micromolar concentration", "value": 97, "unit": "%"}, {"measurement": "IC50", "setting": "[1]", "value": "1 to 200", "unit": "nM"}]}, {"smiles": "O=C([C@H]1CC[C@@H]1c1nc2c(cnn2C2CCC(F)(F)CC2)c(=O)[nH]1)N1CCC(F)CC1", "note": "(racemic) [Example 11]", "values": [{"measurement": "inhibition at 10 µM", "setting": "at 10 micromolar concentration", "value": 94, "unit": "%"}, {"measurement": "IC50", "setting": "[1]", "value": "1 to 200", "unit": "nM"}]}, {"smiles": "O=C([C@H]1CC[C@@H]1c1nc2c(cnn2C2CCC(F)(F)CC2)c(=O)[nH]1)N1CCCC1", "note": "(racemic) [Example 12]", "values": [{"measurement": "inhibition at 10 µM", "setting": "at 10 micromolar concentration", "value": 99, "unit": "%"}, {"measurement": "IC50", "setting": "[1]", "value": "1 to 200", "unit": "nM"}]}, {"smiles": "COC1(C)CCN(C(=O)[C@H]2CC[C@@H]2c2nc3c(cnn3C3CCC(F)(F)CC3)c(=O)[nH]2)CC1", "note": "(racemic) [Example 13]", "values": [{"measurement": "inhibition at 10 µM", "setting": "at 10 micromolar concentration", "value": 97, "unit": "%"}, {"measurement": "IC50", "setting": "[1]", "value": "1 to 200", "unit": "nM"}]}, {"smiles": "O=C([C@H]1CC[C@@H]1c1nc2c(cnn2C2CCC(F)(F)CC2)c(=O)[nH]1)N1CCCC(F)(F)C1", "note": "(racemic) [Example 14]", "values": [{"measurement": "inhibition at 10 µM", "setting": "at 10 micromolar concentration", "value": 100, "unit": "%"}, {"measurement": "IC50", "setting": "[1]", "value": "1 to 200", "unit": "nM"}]}, {"smiles": "CC1CCN(C(=O)[C@H]2CC[C@@H]2c2nc3c(cnn3C3CCC(F)(F)CC3)c(=O)[nH]2)CC1", "note": "(racemic) [Example 15]", "values": [{"measurement": "inhibition at 10 µM", "setting": "at 10 micromolar concentration", "value": 101, "unit": "%"}, {"measurement": "IC50", "setting": "[1]", "value": "1 to 200", "unit": "nM"}]}, {"smiles": "CC1(C)CN(C(=O)[C@H]2CC[C@@H]2c2nc3c(cnn3C3CCC(F)(F)CC3)c(=O)[nH]2)CCO1", "note": "(racemic) [Example 16]", "values": [{"measurement": "inhibition at 10 µM", "setting": "at 10 micromolar concentration", "value": 98, "unit": "%"}, {"measurement": "IC50", "setting": "[1]", "value": "1 to 200", "unit": "nM"}]}, {"smiles": "CCN(CC)C(=O)[C@H]1CC[C@@H]1c1nc2c(cnn2C2CCC(F)(F)CC2)c(=O)[nH]1", "note": "(racemic) [Example 17]", "values": [{"measurement": "inhibition at 10 µM", "setting": "at 10 micromolar concentration", "value": 99, "unit": "%"}, {"measurement": "IC50", "setting": "[1]", "value": "1 to 200", "unit": "nM"}]}, {"smiles": "O=C([C@H]1CC[C@@H]1c1nc2c(cnn2C2CCC(F)(F)CC2)c(=O)[nH]1)N1CCCCC1", "note": "(racemic) [Example 18]", "values": [{"measurement": "inhibition at 10 µM", "setting": "at 10 micromolar concentration", "value": 96, "unit": "%"}, {"measurement": "IC50", "setting": "[1]", "value": "1 to 200", "unit": "nM"}]}, {"smiles": "O=C([C@H]1CCC[C@@H]1c1nc2c(cnn2C2CCC(F)(F)CC2)c(=O)[nH]1)N1CCC(F)(F)CC1", "note": "(racemic) [Example 19]", "values": [{"measurement": "inhibition at 10 µM", "setting": "at 10 micromolar concentration", "value": 92, "unit": "%"}, {"measurement": "IC50", "setting": "[1]", "value": "1 to 200", "unit": "nM"}]}]}
